Test [1] addresses glucosylceramide synthase (GCS) (Homo sapiens (Human), UniProt Q16739). In words: Evaluation of inhibitory activities against GCS (enzyme reaction with A549 cell lysate, NBD C6-ceramide, HPLC fluorescence). It counts as biochemical. To be noted: GCS activity in A549 cell lysate, 37° C. for 90 minutes. Put shortly: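 Lysate of A549 cells in 50 mM HEPES pH 7.3 incubated with test compound and NBD C6-ceramide at 37 °C for 90 min; lipids extracted with chloroform/methanol and GlcCer and ceramide peaks quantified by HPLC fluorescence. Activity from GlcCer area fraction, normalised between DMSO and ibiglustat controls.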

A further test relates to GM1 production. In words: cells. Format: cell-based.

Like-named read-outs stand apart in the source and are kept apart here.

Chain of glucosylceramide synthase (GCS) (Q16739 whole entry, looked up): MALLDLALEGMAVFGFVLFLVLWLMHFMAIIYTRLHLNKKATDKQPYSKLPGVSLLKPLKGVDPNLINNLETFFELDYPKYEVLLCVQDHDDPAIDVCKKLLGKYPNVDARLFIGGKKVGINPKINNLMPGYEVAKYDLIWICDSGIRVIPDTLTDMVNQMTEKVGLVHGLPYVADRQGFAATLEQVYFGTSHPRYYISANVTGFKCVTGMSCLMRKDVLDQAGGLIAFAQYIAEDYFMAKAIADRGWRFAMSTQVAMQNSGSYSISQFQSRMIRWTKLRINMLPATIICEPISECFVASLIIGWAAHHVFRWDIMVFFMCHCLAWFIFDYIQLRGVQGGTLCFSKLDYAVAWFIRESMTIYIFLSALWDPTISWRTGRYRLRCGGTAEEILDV

As for `Cc1ccc(-c2ccc3c(c2)CCC(C)(C)C3NC(=O)O[C@@H]2CN3CCC2CC3)cc1` (stereo partly drawn) [Example 98, (S)-quinuclidin-3-yl (2,2-dimethyl-6-(p-tolyl)-1,2,3,4-tetrahydronaphthalen-1-yl)carbamate], the IC50 amounted to 1.7 nM in test [1] and 2.05 nM in the test on GM1 production (Homo sapiens, Jurkat, 72 h).

As for `CC1(C)CCc2cc(-c3ccc(OC(F)F)cc3)ccc2C1NC(=O)O[C@@H]1CN2CCC1CC2` (stereo partly drawn) [Example 99, (S)-quinuclidin-3-yl (6-(4-(difluoromethoxy)phenyl)-2,2-dimethyl-1,2,3,4-tetrahydronaphthalen-1-yl)carbamate], the IC50 is 1.65 nM in test [1] and 2.56 nM in the test on GM1 production (Homo sapiens, Jurkat, 72 h).

For the compound `CC1(C)CCc2cc(-c3ccc(F)c(F)c3)ccc2C1NC(=O)O[C@@H]1CN2CCC1CC2` (stereo partly drawn) [Example 100, (S)-quinuclidin-3-yl (6-(3,4-difluorophenyl)-2,2-dimethyl-1,2,3,4-tetrahydronaphthalen-1-yl)carbamate], the IC50 is 1.78 nM in test [1] and 2.59 nM with GM1 production (Homo sapiens, Jurkat, 72 h).

For `CC1(C)CCc2cc(-c3ccc(F)cc3F)ccc2C1NC(=O)O[C@@H]1CN2CCC1CC2` (stereo partly drawn) [Example 101, (S)-quinuclidin-3-yl (6-(2,4-difluorophenyl)-2,2-dimethyl-1,2,3,4-tetrahydronaphthalen-1-yl)carbamate], the IC50 in test [1] was found to be 1.59 nM; with GM1 production (Homo sapiens, Jurkat, 72 h), 2.55 nM.

On to `CC1(C)CCc2cc(-c3cc(F)ccc3F)ccc2C1NC(=O)O[C@@H]1CN2CCC1CC2` (stereo partly drawn) [Example 103, (S)-quinuclidin-3-yl (6-(2,5-difluorophenyl)-2,2-dimethyl-1,2,3,4-tetrahydronaphthalen-1-yl)carbamate], for which the IC50 in test [1] is 0.95 nM; with GM1 production (Homo sapiens, Jurkat, 72 h), 0.997 nM.

`CC1(C)CCc2cc(-c3cc(F)cc(F)c3)ccc2C1NC(=O)O[C@@H]1CN2CCC1CC2` (stereo partly drawn) [Example 104, (S)-quinuclidin-3-yl (6-(3,5-difluorophenyl)-2,2-dimethyl-1,2,3,4-tetrahydronaphthalen-1-yl)carbamate]: the half-inhibitory concentration (IC50) stood at 2.25 nM in test [1] and 2.27 nM in the test with GM1 production (Homo sapiens, Jurkat, 72 h).

Consider `CC1(C)CCc2cc(-c3cc(Cl)ccc3Cl)ccc2C1NC(=O)O[C@@H]1CN2CCC1CC2` (stereo partly drawn) [Example 105, (S)-quinuclidin-3-yl (6-(2,5-dichlorophenyl)-2,2-dimethyl-1,2,3,4-tetrahydronaphthalen-1-yl)carbamate], for which the half-inhibitory concentration (IC50) in test [1] amounted to 1.39 nM; in the test on GM1 production (Homo sapiens, Jurkat, 72 h) it was 0.21 nM.

As for `CC1(C)CCc2cc(-c3ccc(Cl)c(Cl)c3)ccc2C1NC(=O)O[C@@H]1CN2CCC1CC2` (stereo partly drawn) [Example 106, (S)-quinuclidin-3-yl (6-(3,4-dichlorophenyl)-2,2-dimethyl-1,2,3,4-tetrahydronaphthalen-1-yl)carbamate], the IC50 came out at 4.05 nM in test [1] and 3.33 nM with GM1 production (Homo sapiens, Jurkat, 72 h).

With `CC1(C)CCc2cc(-c3cc(Cl)cc(Cl)c3)ccc2C1NC(=O)O[C@@H]1CN2CCC1CC2` (stereo partly drawn) [Example 107, (S)-quinuclidin-3-yl (6-(3,5-dichlorophenyl)-2,2-dimethyl-1,2,3,4-tetrahydronaphthalen-1-yl)carbamate], the IC50 is 5.86 nM in test [1] and 6.5 nM in the test with GM1 production (Homo sapiens, Jurkat, 72 h).

As to `CC1(C)CCc2cc(-c3cc(F)c(F)cc3F)ccc2C1NC(=O)O[C@@H]1CN2CCC1CC2` (stereo partly drawn) [Example 108, (S)-quinuclidin-3-yl (2,2-dimethyl-6-(2,4,5-trifluorophenyl)-1,2,3,4-tetrahydronaphthalen-1-yl)carbamate], the IC50 in test [1] turned out to be 2.55 nM; in the test on GM1 production (Homo sapiens, Jurkat, 72 h), 6.7 nM.

For the compound `CC1(C)CCc2cc(-c3ccc(F)c(F)c3F)ccc2C1NC(=O)O[C@@H]1CN2CCC1CC2` (stereo partly drawn) [Example 109, (S)-quinuclidin-3-yl (2,2-dimethyl-6-(2,3,4-trifluorophenyl)-1,2,3,4-tetrahydronaphthalen-1-yl)carbamate], the IC50 was determined as 2.89 nM in test [1] and 2.97 nM in the test on GM1 production (Homo sapiens, Jurkat, 72 h).

In the case of `COCCOc1ccc(-c2ccc3c(c2)CCC(C)(C)C3NC(=O)O[C@@H]2CN3CCC2CC3)cc1` (stereo partly drawn) [Example 110, (S)-quinuclidin-3-yl (6-(4-(2-methoxyethoxy)phenyl)-2,2-dimethyl-1,2,3,4-tetrahydronaphthalen-1-yl)carbamate], the IC50 in test [1] was 0.64 nM; in the test with GM1 production (Homo sapiens, Jurkat, 72 h), 0.29 nM.

As to `COCCOc1cccc(-c2ccc3c(c2)CCC(C)(C)C3NC(=O)O[C@@H]2CN3CCC2CC3)c1` (stereo partly drawn) [Example 111, (S)-quinuclidin-3-yl (6-(3-(2-methoxyethoxy)phenyl)-2,2-dimethyl-1,2,3,4-tetrahydronaphthalen-1-yl)carbamate], the IC50 in test [1] is 2.36 nM; in the test with GM1 production (Homo sapiens, Jurkat, 72 h), 1.84 nM.

Take `COCCOc1ccccc1-c1ccc2c(c1)CCC(C)(C)C2NC(=O)O[C@@H]1CN2CCC1CC2` (stereo partly drawn) [Example 112, (S)-quinuclidin-3-yl (6-(2-(2-methoxyethoxy)phenyl)-2,2-dimethyl-1,2,3,4-tetrahydronaphthalen-1-yl)carbamate]: the IC50 in test [1] was determined as 3.75 nM; with GM1 production (Homo sapiens, Jurkat, 72 h), 0.802 nM.

In the case of `COCOc1ccc(-c2ccc3c(c2)CCC(C)(C)C3NC(=O)O[C@@H]2CN3CCC2CC3)cc1` (stereo partly drawn) [Example 113, (S)-quinuclidin-3-yl (6-(4-(methoxymethoxy)phenyl)-2,2-dimethyl-1,2,3,4-tetrahydronaphthalen-1-yl)carbamate], the IC50 in test [1] worked out at 0.94 nM; in the test with GM1 production (Homo sapiens, Jurkat, 72 h), 0.964 nM.

Consider `COCOc1cccc(-c2ccc3c(c2)CCC(C)(C)C3NC(=O)O[C@@H]2CN3CCC2CC3)c1` (stereo partly drawn) [Example 114, (S)-quinuclidin-3-yl (6-(3-(methoxymethoxy)phenyl)-2,2-dimethyl-1,2,3,4-tetrahydronaphthalen-1-yl)carbamate], for which the IC50 came to 1.8 nM in test [1] and 1.27 nM in the test with GM1 production (Homo sapiens, Jurkat, 72 h).

For `COCOc1ccccc1-c1ccc2c(c1)CCC(C)(C)C2NC(=O)O[C@@H]1CN2CCC1CC2` (stereo partly drawn) [Example 115, (S)-quinuclidin-3-yl (6-(2-(methoxymethoxy)phenyl)-2,2-dimethyl-1,2,3,4-tetrahydronaphthalen-1-yl)carbamate], the IC50 in test [1] was 1.17 nM; with GM1 production (Homo sapiens, Jurkat, 72 h), 0.56 nM.

`COc1cc(-c2ccc3c(c2)CCC(C)(C)C3NC(=O)O[C@@H]2CN3CCC2CC3)ccn1` (stereo partly drawn) [Example 116, (S)-quinuclidin-3-yl (6-(2-methoxypyridin-4-yl)-2,2-dimethyl-1,2,3,4-tetrahydronaphthalen-1-yl)carbamate]: the IC50 in test [1] is 8.62 nM; with GM1 production (Homo sapiens, Jurkat, 72 h), 7.76 nM.

With `Cc1cc(-c2ccc3c(c2)CCC(C)(C)C3NC(=O)O[C@@H]2CN3CCC2CC3)ccn1` (stereo partly drawn) [Example 117, (S)-quinuclidin-3-yl (2,2-dimethyl-6-(2-methylpyridin-4-yl)-1,2,3,4-tetrahydronaphthalen-1-yl)carbamate], the IC50 in test [1] stood at 30.3 nM; with GM1 production (Homo sapiens, Jurkat, 72 h), 37.8 nM.

Consider `CC1(C)CCc2cc(-c3ccnc(F)c3)ccc2C1NC(=O)O[C@@H]1CN2CCC1CC2` (stereo partly drawn) [Example 118, (S)-quinuclidin-3-yl (6-(2-fluoropyridin-4-yl)-2,2-dimethyl-1,2,3,4-tetrahydronaphthalen-1-yl)carbamate], for which the IC50 in test [1] was found to be 17 nM; with GM1 production (Homo sapiens, Jurkat, 72 h), 12.4 nM.

In the case of `CC1(C)CCc2cc(-c3ccnc(C(F)(F)F)c3)ccc2C1NC(=O)O[C@@H]1CN2CCC1CC2` (stereo partly drawn) [Example 119, (S)-quinuclidin-3-yl (2,2-dimethyl-6-(2-(trifluoromethyl)pyridin-4-yl)-1,2,3,4-tetrahydronaphthalen-1-yl) carbamate], the IC50 in test [1] is 11.2 nM; in the test with GM1 production (read-out: IC50), 1.86 nM.

Regarding `COc1ccc(-c2ccc3c(c2)CCC(C)(C)C3NC(=O)O[C@@H]2CN3CCC2CC3)cc1` (stereo partly drawn) [Example 120, (S)-quinuclidin-3-yl (6-(4-methoxyphenyl)-2,2-dimethyl-1,2,3,4-tetrahydronaphthalen-1-yl)carbamate], the IC50 amounted to 5.65 nM in test [1] and 1.83 nM in the test with GM1 production (Homo sapiens, Jurkat, 72 h).

Regarding `COc1cccc(-c2ccc3c(c2)CCC(C)(C)C3NC(=O)O[C@@H]2CN3CCC2CC3)c1` (stereo partly drawn) [Example 121, (S)-quinuclidin-3-yl (6-(3-methoxyphenyl)-2,2-dimethyl-1,2,3,4-tetrahydronaphthalen-1-yl)carbamate], the IC50 in test [1] was found to be 5.51 nM; with GM1 production (Homo sapiens, Jurkat, 72 h), 0.0387 nM.

In the case of `CCOc1cccc(-c2ccc3c(c2)CCC(C)(C)C3NC(=O)O[C@@H]2CN3CCC2CC3)c1` (stereo partly drawn) [Example 122, (S)-quinuclidin-3-yl (6-(3-ethoxyphenyl)-2,2-dimethyl-1,2,3,4-tetrahydronaphthalen-1-yl)carbamate], the IC50 in test [1] worked out at 3.38 nM; in the test on GM1 production (Homo sapiens, Jurkat, 72 h) it was 0.774 nM.

Regarding `COc1ccc(-c2ccc3c(c2)CCC(C)(C)C3NC(=O)O[C@@H]2CN3CCC2CC3)c(Cl)c1` (stereo partly drawn) [Example 123, (S)-quinuclidin-3-yl (6-(2-chloro-4-methoxyphenyl)-2,2-dimethyl-1,2,3,4-tetrahydronaphthalen-1-yl)carbamate], the half-inhibitory concentration (IC50) in test [1] stood at 0.97 nM; in the test on GM1 production (Homo sapiens, Jurkat, 72 h) it was 1.43 nM.

With `COc1cc(-c2ccc3c(c2)CCC(C)(C)C3NC(=O)O[C@@H]2CN3CCC2CC3)ccc1Cl` (stereo partly drawn) [Example 124, (S)-quinuclidin-3-yl (6-(4-chloro-3-methoxyphenyl)-2,2-dimethyl-1,2,3,4-tetrahydronaphthalen-1-yl)carbamate], the IC50 is 1.6 nM in test [1] and 3.35 nM in the test on GM1 production (Homo sapiens, Jurkat, 72 h).

`COc1ccc(Cl)c(-c2ccc3c(c2)CCC(C)(C)C3NC(=O)O[C@@H]2CN3CCC2CC3)c1` (stereo partly drawn) [Example 125, (S)-quinuclidin-3-yl (6-(2-chloro-5-methoxyphenyl)-2,2-dimethyl-1,2,3,4-tetrahydronaphthalen-1-yl)carbamate]: the half-inhibitory concentration (IC50) in test [1] came out at 1.1 nM; with GM1 production (Homo sapiens, Jurkat, 72 h), 2.04 nM.

Take `COc1ccc(-c2ccc3c(c2)CCC(C)(C)C3NC(=O)O[C@@H]2CN3CCC2CC3)cc1F` (stereo partly drawn) [Example 126, (S)-quinuclidin-3-yl (6-(3-fluoro-4-methoxyphenyl)-2,2-dimethyl-1,2,3,4-tetrahydronaphthalen-1-yl)carbamate]: the IC50 in test [1] was 0.83 nM; with GM1 production (Homo sapiens, Jurkat, 72 h), 1.89 nM.
